This passage reports IC50 results from US10961202B2, “Bis-benzimidazole compounds and methods of using the same” (THE SCRIPPS RESEARCH INSTITUTE, priority 2017, dated 2021).

pIC50: −log10 of the molar value.

The experiment concerns r(CUG)12-MBNL1 complex. Nature of the experiment: Inhibition of the r(CUG)12-MBNL1 complex measured by TR-FRET. In kind it is biochemical. The conditions noted are these: 80 nM RNA, 60 nM MBNL1-His6.

Take `O=C(NCCN1CCCC1)c1ccc2nc(-c3ccc(-c4nc5ccc(C(=O)NCCN6CCCC6)cc5[nH]4)cc3)[nH]c2c1` [Compound 40, 2,2′-(1,4-phenylene)bis(N-(2-(pyrrolidin-1-yl)ethyl)-1H-benzo[d]imidazole-6-carboxamide)]: the pIC50 (Table L) is 5.15. `CON(C)Cc1ccc2nc(-c3ccc(-c4nc5ccc(CNCCN(C)C)cc5[nH]4)cc3)[nH]c2c1` [Compound 62] gave a pIC50 (Table L) of under 3.70.

On to `C#CCCCNC(=O)CCCOc1ccc2[nH]c(-c3ccc(-c4nc5cc(OCCCN(C)C)ccc5[nH]4)cc3)nc2c1` [Compound 322], for which the pIC50 (Table M) is 4.40.

For the setting “Table L”, `O=C(NCCN1CCOCC1)c1ccc2nc(-c3ccc(-c4nc5ccc(C(=O)NCCN6CCOCC6)cc5[nH]4)cc3)[nH]c2c1` [Compound 42, 2,2′-(1,4-phenylene)bis(N-(2-morpholinoethyl)-1H-benzo[d]imidazole-6-carboxamide)] gave a pIC50 of under 3.70.

Molecule `CN(C)CCNC(=O)c1ccc(-c2nc3ccc(-c4ccc5nc(-c6ccc(C(=O)N7CCC(C8CCN(C(=O)c9ccc(-c%10nc%11ccc(-c%12ccc%13nc(-c%14ccc(C(=O)NCCN(C)C)cc%14)[nH]c%13c%12)cc%11[nH]%10)cc9)CC8)CC7)cc6)[nH]c5c4)cc3[nH]2)cc1` [Compound 439] had a pIC50 (Table M) of 4.96. Still for that read-out and setting: with `CN1CC[C@@H](Oc2ccc3nc(-c4ccc(-c5nc6ccc(O)cc6[nH]5)cc4)[nH]c3c2)C1` [Compound 182] the figure was 4.03; with `CN(C)CCCOc1cc2[nH]c(-c3cc(F)c(-c4nc5cc(F)c(OCCCN(C)C)cc5[nH]4)cc3F)nc2cc1F` [Compound 331], 5.51. Where the note is “Table L”, `CCCNC(=O)c1ccc2nc(-c3ccc(-c4nc5ccc(C(=O)NCCC)cc5[nH]4)cc3)[nH]c2c1` [Compound 52, 2,2′-(1,4-phenylene)bis(N-propyl-1H-benzo[d]imidazole-6-carboxamide)] had a pIC50 of under 3.70. As for `CN(C)CCSc1ccc(-c2nc3cc(-c4ccc5[nH]c(-c6ccc(SCCN(C)C)cc6)nc5c4)ccc3[nH]2)cc1` [Compound 381], where the note is “Table M”, the pIC50 was 4.30. On the same count and under the same terms, with `CC(CCCNC(=O)c1ccc(-c2nc3ccc(-c4ccc5nc(-c6ccc(C(=O)NCCN(C)C)cc6)[nH]c5c4)cc3[nH]2)cc1)CNC(=O)c1ccc(-c2nc3ccc(-c4ccc5nc(-c6ccc(C(=O)NCCN(C)C)cc6)[nH]c5c4)cc3[nH]2)cc1` (stereo not drawn) [Compound 426] the figure was 5.15; with `c1cc2nc(-c3ccc(-c4nc5ccc(OCCN6CCCCC6)cc5[nH]4)cc3)[nH]c2cc1OCCN1CCCCC1` [Compound 191], 4.00. The molecule `COCCCOc1ccc(-c2nc3cc(-c4ccc5[nH]c(-c6ccc(C(=O)NCCN(C)C)cc6)nc5c4)ccc3[nH]2)cc1` [Compound 391] showed a pIC50 (Table M) of 4.73. Still for that read-out and setting: with `NCCCOc1ccc(-c2nc3cc(-c4ccc5[nH]c(-c6ccc(O)cc6)nc5c4)ccc3[nH]2)cc1` [Compound 380] the figure was 4.78.

`CNCCNC(=O)c1ccc(-c2nc3cc(-c4ccc5[nH]c(-c6ccc(C(=O)NCCNC)cc6)nc5c4)ccc3[nH]2)cc1` [Compound 111, 4,4′-(1H,1′H-[5,5′-bibenzo[d]imidazole]-2,2′-diyl)bis(N-(2-(methylamino)ethyl)benzamide)] showed a pIC50 (Table L) of 5.16. In the case of `CN(C)CCCOc1ccc2nc(-c3ccc(-c4nc5ccccc5[nH]4)cc3)[nH]c2c1` [Compound 246], the pIC50 (Table M) was under 3.70. Molecule `C#CCCCCN(C)CCNC(=O)c1ccc2nc(-c3ccc(-c4nc5ccc(C(=O)NCCN(C)C)cc5[nH]4)cc3)[nH]c2c1` [Compound 73] gave a pIC50 (Table L) of 5.02. On to `CN1CCC(Oc2ccc(-c3nc4cc(-c5ccc6[nH]c(-c7ccc(OC8CCN(C)CC8)cc7)nc6c5)ccc4[nH]3)cc2)CC1` [Compound 335], for which the pIC50 (Table M) was 4.65.

As for `CN1CCC[C@H]1COc1ccc2nc(-c3ccc(-c4nc5ccc(O)cc5[nH]4)cc3)[nH]c2c1` [Compound 196], the negative logarithm of the IC50 (pIC50) (Table M) was 3.98.
